Data: ChEMBL document CHEMBL4613209, “Quinolone hybrids and their anti-cancer activities: An overview” (Eur J Med Chem, 2019)
pIC50: −log10 of the molar value. Values after ≈ are worked out from the molar mass of the structure shown. Each block holds one compound with its values, some of them ahead of it.

Tests used:
PC-3 = assay: Cytotoxicity against human PC3 cells assessed as reduction in cell viability after 48 hrs by SRB assay; assay type: functional, cell-based; conditions: PC-3, 48 h
DU-145 [1] = assay: Cytotoxicity against human DU145 cells assessed as reduction in cell viability after 48 hrs by SRB assay; assay type: functional, cell-based; conditions: DU-145, 48 h
SMMC-7721 [2] = assay: Cytotoxicity against human SMMC7721 cells assessed as reduction in cell viability by MTT assay; assay type: functional, cell-based
KB = assay: Cytotoxicity against human KB cells assessed as reduction in cell viability; assay type: functional; conditions: read-out: TD50 (the source's name)
L1210 [3] = assay: Cytotoxicity against mouse L1210 cells assessed as reduction in cell viability; assay type: functional, cell-based
[4] = Cytotoxicity against human SW403 cells assessed as reduction in cell viability; assay type: functional; conditions: SW-403, read-out: TD50 (the source's name)
MCF7 [5] = assay: Cytotoxicity against human MCF7 cells assessed as reduction in cell viability; assay type: functional, cell-based; conditions: read-out: TD50 (the source's name)
OVCAR-3 = assay: Cytotoxicity against human OVCAR3 cells assessed as reduction in cell viability; assay type: functional; conditions: read-out: TD50 (the source's name)
HL-60 [6] = assay: Cytotoxicity against human HL60 cells assessed as reduction in cell viability; assay type: functional, cell-based
HCT-116 [7] = assay: Cytotoxicity against human HCT116 cells assessed as reduction in cell viability by SRB assay; assay type: functional, cell-based
L1210 [8] = assay: Cytotoxicity against mouse L1210 cells assessed as reduction in cell viability by MTT assay; assay type: functional, cell-based
HL-60 [9] = assay: Cytotoxicity against human HL60 cells assessed as reduction in cell viability by MTT assay; assay type: functional, cell-based
Hep 3B2 [10] = assay: Cytotoxicity against human Hep3B cells assessed as reduction in cell viability by MTT assay; assay type: functional, cell-based
CAPAN-1 [11] = assay: Cytotoxicity against human Capan1 cells assessed as reduction in cell viability by MTT assay; assay type: functional, cell-based
CAPAN-1 [12] = assay: Cytotoxicity against human Capan1 cells assessed as reduction in cell viability; assay type: functional, cell-based
Hep 3B2 [13] = assay: Cytotoxicity against human Hep3B cells assessed as reduction in cell viability; assay type: functional, cell-based
HCT-8 = assay: Antiproliferative activity against human HCT8 cells after 48 hrs by MTT assay; assay type: functional, cell-based; conditions: HCT-8, 48 h
SMMC-7721 [14] = assay: Cytotoxicity against human SMMC7721 cells assessed as reduction in cell viability; assay type: functional, cell-based
SMMC-7721 [15] = assay: Antiproliferative activity against human SMMC7721 cells after 24 to 72 hrs by MTT assay; assay type: functional, cell-based
L1210 [16] = assay: Antiproliferative activity against mouse L1210 cells after 24 to 72 hrs by MTT assay; assay type: functional, cell-based
HL-60 [17] = assay: Antiproliferative activity against human HL60 cells after 24 to 72 hrs by MTT assay; assay type: functional, cell-based
SMMC-7721 [18] = assay: Antiproliferative activity against human SMMC7721 cells by MTT assay; assay type: functional, cell-based
L1210 [19] = assay: Antiproliferative activity against mouse L1210 cells by MTT assay; assay type: functional, cell-based
[20] = Toxicity in mouse xenografted with human CX-1 cells; conditions: in vivo
[21] = Toxicity in mouse xenografted with human MB-9812 cells
PANC-1 [22] = assay: Potency index, ratio of IC50 for etoposide to IC50 for test compound for anticancer activity against human PANC1 cells after 48 hrs by SRB assay; assay type: functional
A549 [23] = assay: Potency index, ratio of IC50 for etoposide to IC50 for test compound for anticancer activity against human A549 cells after 48 hrs by SRB assay; assay type: functional
HCT-116 [24] = assay: Potency index, ratio of IC50 for etoposide to IC50 for test compound for anticancer activity against human HCT116 cells after 48 hrs by SRB assay; assay type: functional
MCF7-DOX [25] = assay: Anticancer activity against human MCF7/Dox cells after 48 hrs by SRB assay; assay type: functional, cell-based
HL-60 [26] = assay: Potency index, ratio of IC50 for etoposide to IC50 for test compound for anticancer activity against human HL60 cells after 48 hrs by SRB assay; assay type: functional
MCF7 [27] = assay: Anticancer activity against human MCF7 cells after 48 hrs by SRB assay; assay type: functional, cell-based; conditions: MCF7, 48 h
SK-OV-3 [28] = assay: Anticancer activity against human SKOV3 cells after 48 hrs by SRB assay; assay type: functional, cell-based; conditions: SK-OV-3, 48 h
PANC-1 [29] = assay: Anticancer activity against human PANC1 cells after 48 hrs by SRB assay; assay type: functional, cell-based; conditions: PANC-1, 48 h
HeLa [30] = assay: Anticancer activity against human HeLa cells after 48 hrs by SRB assay; assay type: functional, cell-based
HL-60 [31] = assay: Anticancer activity against human HL60 cells after 48 hrs by SRB assay; assay type: functional, cell-based; conditions: HL-60, 48 h
HepG2 = assay: Anticancer activity against human HepG2 cells after 48 hrs by SRB assay; assay type: functional, cell-based; conditions: HepG2, 48 h
DU-145 [32] = assay: Anticancer activity against human DU145 cells after 48 hrs by SRB assay; assay type: functional, cell-based; conditions: DU-145, 48 h
A549 [33] = assay: Anticancer activity against human A549 cells after 48 hrs by SRB assay; assay type: functional, cell-based; conditions: A549, 48 h
HCT-116 [34] = assay: Anticancer activity against human HCT116 cells after 48 hrs by SRB assay; assay type: functional, cell-based; conditions: HCT-116, 48 h
HeLa [35] = assay: Potency index, ratio of IC50 for etoposide to IC50 for test compound for anticancer activity against human HeLa cells after 48 hrs by SRB assay; assay type: functional
DU-145 [36] = assay: Potency index, ratio of IC50 for etoposide to IC50 for test compound for anticancer activity against human DU145 cells after 48 hrs by SRB assay; assay type: functional
SK-OV-3 [37] = assay: Potency index, ratio of IC50 for etoposide to IC50 for test compound for anticancer activity against human SKOV3 cells after 48 hrs by SRB assay; assay type: functional
MCF7 [38] = assay: Potency index, ratio of IC50 for etoposide to IC50 for test compound for anticancer activity against human MCF7 cells after 48 hrs by SRB assay; assay type: functional
MCF7-DOX [39] = assay: Potency index, ratio of IC50 for etoposide to IC50 for test compound for anticancer activity against human MCF7/Dox cells after 48 hrs by SRB assay; assay type: functional

Compound: COc1cccc2c1C(=O)c1c(O)c3c(c(O)c1C2=O)C[C@@](O)(C(=O)CO)C[C@@H]3O[C@H]1C[C@H](N)[C@H](O)[C@H](C)O1 [DOXORUBICIN]
IC50 (PC-3): 0.4 µg/mL (≈ 0.736 µM)
IC50 (DU-145 [1]): 0.4 µg/mL (≈ 0.736 µM)
pIC50 (SMMC-7721 [2]): 5.59 to 5.92
CC50 (KB): 0.014 to 0.098 µg/mL (≈ 0.0258 to 0.18 µM)
pIC50 (L1210 [3]): 5.52 to 5.80
CC50 [4]: 0.014 to 0.098 µg/mL (≈ 0.0258 to 0.18 µM)
CC50 (MCF7 [5]): 0.014 to 0.098 µg/mL (≈ 0.0258 to 0.18 µM)
CC50 (OVCAR-3): 0.014 to 0.098 µg/mL (≈ 0.0258 to 0.18 µM)
pIC50 (HL-60 [6]): 5.46
pIC50 (HCT-116 [7]): 8.06
pIC50 (L1210 [8]): 5.59 to 5.92
pIC50 (HL-60 [9]): 5.59 to 5.92
pIC50 (Hep 3B2 [10]): 5.46 to 5.74
pIC50 (CAPAN-1 [11]): 5.46 to 5.74
pIC50 (CAPAN-1 [12]): 5.77
pIC50 (Hep 3B2 [13]): 5.59
pIC50 (HCT-8): 5.14
pIC50 (SMMC-7721 [14]): 5.52 to 5.80
pIC50 (SMMC-7721 [15]): 5.60
pIC50 (L1210 [16]): 5.77
pIC50 (HL-60 [17]): 5.44
pIC50 (SMMC-7721 [18]): 5.64
pIC50 (L1210 [19]): 5.38
LD50 [20]: 11 mg/kg
LD50 [21]: 11 mg/kg

pIC50 (MCF7-DOX [25]): 5.20 to 6.30
pIC50 (MCF7 [27]): 5.20 to 6.30
pIC50 (SK-OV-3 [28]): 5.20 to 6.30
pIC50 (PANC-1 [29]): 5.20 to 6.30
pIC50 (HeLa [30]): 5.20 to 6.30
pIC50 (HL-60 [31]): 5.20 to 6.30
pIC50 (HepG2): 5.20 to 6.30
pIC50 (DU-145 [32]): 5.20 to 6.30
pIC50 (A549 [33]): 5.20 to 6.30
pIC50 (HCT-116 [34]): 5.20 to 6.30
Compound: CC1(CN)CN(c2ccc3c(=O)c(C(=O)O)cn(-c4nccs4)c3n2)C/C1=N/OCc1ccccc1 (centres undefined)
Ratio IC50 (PANC-1 [22]): >=1.3 - 100
Ratio IC50 (A549 [23]): >=1.3 - 100
Ratio IC50 (HCT-116 [24]): >=1.3 - 100
Ratio IC50 (HL-60 [26]): >=1.3 - 100
Ratio IC50 (HeLa [35]): >=1.3 - 100
Ratio IC50 (DU-145 [36]): >=1.3 - 100
Ratio IC50 (SK-OV-3 [37]): >=1.3 - 100
Ratio IC50 (MCF7 [38]): >=1.3 - 100
Ratio IC50 (MCF7-DOX [39]): >=1.3 - 100
